According to paper PMC11374673, “Discovery of isoquinoline sulfonamides as allosteric gyrase inhibitors with activity against fluoroquinolone-resistant bacteria” (Nature Chemistry, 2024):
≈ marks a conversion by molar mass, not a printed value. Like-named read-outs stand apart in the source and are kept apart here.

How the values were obtained:
K. pneumoniae ATCC 29665 = assay: MIC by broth microdilution; assay type: cell-based, Klebsiella pneumoniae
How it was run: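 Broth microdilution in CAMHB: twofold compound series inoculated with 100-fold-diluted bacteria from exponential growth (OD600 0.5, 37 °C); kanamycin 50 µg ml^−1 added for Keio collection strains. Overnight incubation, 37 °C, 600 r.p.m. shaking.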

[1] = system: E. coli BW25113 and single-gene knockouts; assay: MIC on E. coli strains of the Keio collection; assay type: cell-based, Escherichia coli; details: for MIC: Escherichia coli
Procedure: (§1) MIC was determined by broth microdilution. Single-colony cultures were grown to exponential phase (OD600 of 0.5) aerobically at 37 °C. In case of strains from the Keio collection, 50 µg ml^−1 kanamycin was supplemented to the media to ascertain a homogeneous population. The bacterial suspensions were diluted 100-fold in CAMHB and 50 µl was added to a twofold serial dilution series of test compounds (50 µl per well) in polypropylene 96-well microtitre plates to reach a volume of 100 µl. The plates were sealed with breathable membranes and incubated overnight at 37 °C with constant shaking (600 r.p.m.). The MIC was determined as the lowest concentration at which no visible bacterial growth was observed as compared with the inoculum controls from the median of a minimum of triplicates.

[2] = system: E. coli W3110 gyrA S97L, S83L, D87N; assay: MIC against CRISPR/Cas9 gyrA point mutants; assay type: cell-based, Escherichia coli; details: for susceptibility of gyrA S97L mutant: CRISPR–Cas9 S97L; for MIC: Escherichia coli
Procedure: as §1
Mutants of the DNA gyrase subunit A encoding gene (gyrA) were constructed following the protocol for gene editing via the CRISPR–Cas9 system. Strains and plasmids used are listed in Supplementary Table 15, and primers used can be found in Supplementary Table 16. The following mutations were created: S97L in E. coli W3110. Two common mutations in the gyrA gene that give resistance to fluoroquinolone antibiotics were created in E. coli W3110, namely S83L and D87N. To create the gyrA (S97L) mutants, the construct psgRNA-gyrA-M5 was assembled as follows: The 20-nt spacer sequence was introduced by PCR on pTargetF using primers gyrA_P11 and gyrA_P12, the homology-directed repair (HDR) arms were amplified from E. coli W3110 genomic DNA by PCR using primer pairs gyrA_P05 and gyrA_P013, and gyrA_P08 and gyrA_P14. The three PCR fragments generated were cloned into the SpeI and BglII digested pTargetF via Gibson assembly. To avoid off-target effects of CRISPR, besides desired point mutation for gyrA (S97L), four other silent point mutations were also included in the HDR template. Consequently, the amino acid sequence of gyrA will remain the same in the generated mutant except for the desired mutation. Similarly, constructs psgRNA-gyrA-S83L and psgRNA-gyrA-D87N were created to introduce mutations S83L and D87N in gyrA, respectively. In psgRNA-gyrA-S83L, spacer sequence was introduced using primers gyrA_P12 and gyrA_P17, HDR template was amplified using primer pairs gyrA_P05 and gyrA_P18, and gyrA_P08 and gyrA_P19. In psgRNA-gyrA-D87N, spacer sequence was introduced using primers gyrA_P12 and gyrA_P20, HDR template was amplified using primer pairs gyrA_P05 and gyrA_P21, and gyrA_P08 and gyrA_P22. The verified constructs for gyrA engineering were transformed into E. coli W3110 carrying pCas9, and plated in LB containing kanamycin (50 µg ml^−1) for the selection of the pCas9 plasmid and spectinomycin (100 µg ml^−1) for the selection of psgRNA-gyrA-X. The plates were incubated at 30 °C. Plasmids were cured by growing the strains with 0.5 mM isopropylthiogalactoside with no antibiotics to lose first the psgRNA-gyrA plasmids. After losing the spectinomycin resistance, the strain was grown in LB with no antibiotics at 42 °C to lose the pCas plasmid. Colony PCR was performed on plasmid-free colonies using primers gyrA_P9 and gyrA_P10, and PCR products were sequenced to confirm the desired mutation

[3] = Klebsiella pneumoniae, ATCC29665, broth microdilution, read-out: MIC K. pneumoniae ATCC 29665
[4] = BW25113, read-out: MIC E. coli BW25113, parent strain
[5] = E. coli W3110 gyrA D87N (FQ-resistant 2)
[6] = E. coli W3110 gyrA S83L (FQ-resistant 1)
[7] = E. coli W3110 gyrA S97L (LEI-800-resistant)

Compound | MIC (K. pneumoniae ATCC 29665; [3]) [µM] | MIC [1, 4] [µM] | susceptibility of gyrA S97L mutant [2] | MIC [2, 5] [µM] | MIC [2, 6] [µM] | MIC [2, 7] [µM] | MIC (K. pneumoniae ATCC 29665; Klebsiella pneumoniae, ATCC29665, read-out: MIC K. pneumoniae ATCC 29665) [µM] | MIC (K. pneumoniae ATCC 29665; broth microdilution, listed as LEI-801 (99), read-out: MIC K. pneumoniae ATCC 29665) [µM] | potency against ΔtolC efflux pump mutant [1] | MIC ([1]; BW25113, JW3594 ΔrfaD) [µM] | MIC ([1]; BW25113, JW3596 ΔrfaC, LPS disruption (genetic)) [µM] | MIC ([1]; BW25113, JW3600 ΔrfaY) [µM] | MIC ([1]; BW25113, JW3602 ΔrfaI) [µM] | MIC ([1]; BW25113, JW3605 ΔrfaP) [µM] | MIC ([1]; BW25113, JW5503 ΔTolC) [µM]
O=S(=O)(NC[C@@H]1CC[C@H](c2ccc(-c3ccc(F)cc3)cc2)N1)c1cccc2cnccc12 [Compound 101] | 3.1 (≈ 1.43 µg/mL) | 1.6 (≈ 0.738 µg/mL) | resistant | 3.1 (≈ 1.43 µg/mL) | 3.1 (≈ 1.43 µg/mL) | > 50 |  |  |  |  |  |  |  |  | 
O=S(=O)(NCCNCc1ccc(-c2ccc(F)nc2)cc1)c1cccc2cnccc12 [Compound 60] | 25 (≈ 10.9 µg/mL) | 6.25 (≈ 2.73 µg/mL) | resistant | 50 (≈ 21.8 µg/mL) | 25 (≈ 10.9 µg/mL) | > 50 | 6.25 (≈ 2.73 µg/mL) |  |  |  |  |  |  |  | 
O=S(=O)(NC[C@H]1CC[C@@H](c2ccc(-c3ccc(F)nc3)cc2)N1)c1cccc2cnccc12 [LEI-801] | > 50 | > 50 |  |  |  |  |  | > 50 | No increase in potency | 3.1 (≈ 1.43 µg/mL) | 3.1 (≈ 1.43 µg/mL) | > 50 | > 50 | 12.5 (≈ 5.78 µg/mL) | > 50
